In patent US6346539B1, “Treatment of skin conditions” (BTG International Limited, priority 1998, dated 2002):
Read-outs that look alike come from different tables or passages of the source.

Legend:
melan-a cells [1] = experiment: Effect of RO-31-8220 on growth of melan-a cells with piperine and TPA, SRB assay; type: cell-based, mouse; conditions: 4 days
Description: Cells of mouse melan-a cell line (passage number 18-24), a first known line of non-tumorigenic pigmented mouse melanocytes were maintained in a flask (Costar, Cambridge, Mass., USA) using RPMI 1640 (ICN, Costa, Mesa, Calif., USA) as a basic medium. For microplate proliferation assays, subconfluent melan-a cultures were trypsinized (0.25% trypsin at 37° C. for 5-10 min) and inoculated with a repeater-pipettor (Finn pipette, Labsystems, Finland) into 96-well microtiter plates (Costar, Cambridge, Mass., USA). The plates were incubated at 37° C. in a 10% CO2, 90% air humidified atmosphere for the stated length of time. At the end of the incubation, an SRB assay was performed. Briefly, cells attached to the bottom of the plate were fixed by addition of cold trichloroacetic acid (TCA, 4° C., Aldrich, Dorset, UK) on the top of the growth medium (final TCA 20% w/v). The plate was placed at 4° C. for 1 hour before being gently washed five times with tap water. It was allowed to dry in air, or aided with a hair dryer to speed up the drying process, then 50 μl of 4% w/v SRB dissolved in 1% acetic acid in water was added to each well for 30 min. […] The plate was shaken for 15 min on a gyratory shaker followed by reading the optical density (OD) at 550 nm in a microplate spectrophotometer (Anthos Labtec HT3, version 1.06). […]

melan-a cells [2] = experiment: Dendricity of melan-a cells by observation under microscope; type: cell-based, mouse; set-up: key: +++: highly dendritic; ++: moderately dendritic; +: weakly dendritic; −: no effect
Excerpt: Effect on dendricity of melan-a cells by the test compounds was by observation under microscope. Dendricity is relevant to vitiligo since normal skin melanocytes have dendrites, but in vitiligo the melanocytes seem to lose these before they disappear from the patches.

mouse melan-a cells = experiment: Melanocyte proliferant activity of piperine derivatives, SRB assay, 4 days, 10% FBS; type: cell-based; conditions: for Relative activity to piperine: (A-100) compound/(A-100) piperine; for activity at 1 µM / activity at 10 µM / activity at 50 µM / activity at 100 µM / activity at 25 µM: Mus musculus, Melan-a, 96 h; for Active at 10 μM? / More active than piperine at higher conc. (μM)?: overall summary; for More active than piperine at higher conc. (μM)?: concentrations at which more active than piperine
Description: The plates were incubated at 37° C. in a 10% CO2, 90% air humidified atmosphere for the stated length of time. At the end of the incubation, an SRB assay was performed. Briefly, cells attached to the bottom of the plate were fixed by addition of cold trichloroacetic acid (TCA, 4° C., Aldrich, Dorset, UK) on the top of the growth medium (final TCA 20% w/v). The plate was placed at 4° C. for 1 hour before being gently washed five times with tap water. It was allowed to dry in air, or aided with a hair dryer to speed up the drying process, then 50 μl of 4% w/v SRB dissolved in 1% acetic acid in water was added to each well for 30 min. At the end of the staining period, unbound SRB was removed by washing 4 times with 1% acetic acid. The plate was air dried again, and 150 μl of 10 mM aqueous Tris base (Sigma-Aldrich Co. Ltd, Irvine, UK) was added into each well to solubilize the cell-bound dye.
Various piperine derivatives of formula (1) were synthesised and tested for melanocyte (mouse melan-a) proliferant activity in-vitro. Cells we re incubated with the test compound for 4 days, as previously for the mouse cells but with 10% FBS, after which the sulphorhodamine-B (SRB) assay was performed to determnine cell number SRB uptake was measured as optical density at 550 nm. The control assay was carried out on cells incubated without test compound. There were 2 or 3 series of experiments, each of which consisted of six replcate experiments.
Percentage cell growth was obtained with a given compound calculated as (optical density in the presence of the compound/control optical density)×100.
Melan-a cell proliferant activity for tested compounds was compared with that obtained with piperine. […] All figures are given with Standard Error of the Mean.

[3] = read-out: growth of melan-a cells as % of control, dose experiment
[4] = 10 μM, read-out: growth of melan-a cells as % of control, dose experiment
[5] = single concentration (10 μM), melan-a, ± SEM, read-out: Percentage cell growth (Repeated experiments)
[6] = single concentration (10 μM), melan-a

| Compound | effect of RO-31-8220 on the proliferant effects of piperine and TPA on melan-a cells (melan-a cells [1]; RO-31-8220 0.1-100 nM, piperine 1 μM, TPA 20 nM) | cytotoxic effect of RO-31-8220 alone on melan-a cells (melan-a cells [1]; concentrations up to 100 nM) | Dentricity, dose experiment (melan-a cells [2]; 1 μM) | Dentricity, dose experiment (melan-a cells [2]; 10 μM) | Dentricity, dose experiment (melan-a cells [2]; 50 μM) | Dentricity, dose experiment (melan-a cells [2]; 100 μM) | Dendricity (melan-a cells [2]; Table 9, 10 μM) | Relative activity to piperine (mouse melan-a cells; 10 μM) | activity at 1 µM (mouse melan-a cells; [3]) [%] | activity at 10 µM (mouse melan-a cells; [4]) [%] | activity at 50 µM (mouse melan-a cells; [3]) [%] | activity at 100 µM (mouse melan-a cells; [3]) [%] | activity at 10 µM (mouse melan-a cells; [5]) [%] | Active at 10 μM? (mouse melan-a cells; melan-a) | Stimulant activity (mouse melan-a cells; [6]) | Dendricity (melan-a cells [2]; Table 8, 10 μM) | activity at 25 µM (mouse melan-a cells; [3]) [%] | Dendricity (melan-a cells [2]; Table 11, 10 μM) | More active than piperine at higher conc. (μM)? (mouse melan-a cells) | Dendricity (melan-a cells [2]; Table 12, 10 μM) |
| --- | --- | --- | --- | --- | --- | --- | --- | --- | --- | --- | --- | --- | --- | --- | --- | --- | --- | --- | --- | --- |
| Cn1cc(C2=C(c3cn(CCCSC(=N)N)c4ccccc34)C(=O)NC2=O)c2ccccc21 [RO-31-8220] | effectively inhibited | did not have significant cytotoxic effect |  |  |  |  |  |  |  |  |  |  |  |  |  |  |  |  |  |  |
| CCCCOC(=O)/C=C/C=C/c1ccc2c(c1)OCO2 [RV-AB6, 5-E,E-piperinic Acid Butyl Ester] |  |  | − | + | ++ | + | + | 0.59 | 103 ± 5 | 148 ± 18 | 190 ± 11 | 128 ± 17 | 148 ± 18 | Yes | Positive |  |  |  |  |  |
| O=C(/C=C/c1ccc2c(c1)OCO2)N1CCCCC1 [RV-B01, 1-(3-trans-benzo-1,3-dioxol-5-ylacryloyl)piperidine] |  |  |  |  |  |  |  |  | 111 ± 6 | 147 ± 7 | 187 ± 8 |  |  | Yes | Positive | ++ | 187 ± 18 |  |  |  |
| O=C(/C=C/c1ccc2c(c1)OCO2)N1CCCC1 [RV-B02, 1-(3-trans-benzo-1,3-dioxol-5-ylacryloyl)pyrrolidine] |  |  |  |  |  |  |  |  |  |  |  |  | 140 ± 14 | No^b | Non- significant | + |  |  |  |  |
| O=C(/C=C/c1ccc2c(c1)OCO2)N1CCOCC1 [RV-B03, 1-(3-trans-benzo-1,3-dioxol-5-ylacryloyl)morpholine] |  |  |  |  |  |  |  |  |  |  |  |  | 103 ± 12 | No | None | − |  |  |  |  |
| O=C(CCCCc1ccc2c(c1)OCO2)N1CCCCC1 [RV-C02, Tetrahydropiperine] |  |  |  |  |  |  |  |  | 134 ± 15 | 183 ± 33 | 175 ± 12 |  |  | Yes | Positive |  | 199 ± 31 | +++ | No |  |
| O=C(CCc1ccc2c(c1)OCO2)N1CCCCC1 [RV-C03, 3-benzo-1,3-dioxol-5-ylpropionic Acid Piperidide] |  |  |  |  |  |  |  |  |  |  |  |  | 104 ± 5 | No^b | None |  |  | + |  |  |
| COc1ccccc1/C=C/C(=O)N1CCCCC1 [RV-G01, 1-(2-methoxy-cinnamoyl)-piperidine] |  |  | − | − | − | − |  | 0.04 | 99 ± 8 | 105 ± 8 | 103 ± 6 | 119 ± 9 | 105 ± 8 | No | None |  |  |  | No |  |
| COc1cccc(/C=C/C(=O)N2CCCCC2)c1 [RV-G02, 1-(3-methoxy-cinnamoyl)piperidine] |  |  | − | − | − | − |  |  | 99 ± 5 | 95 ± 18 | 110 ± 11 | 127 ± 9 |  | No | Negative |  |  |  | No |  |
| COc1ccc(/C=C/C(=O)N2CCCCC2)cc1 [RV-G03, 1-(4-methoxy-cinnamoyl)piperidine] |  |  | − | − | − | − |  |  | 90 ± 10 | 108 ± 20 | 111 ± 10 | 133 ± 15 | 121 ± 8 | No | Non- significant |  |  |  | No | − |
| COc1ccc(/C=C/C(=O)N2CCCCC2)cc1OC [RV-G04, 1-(3,4-dimethoxycinnamoyl)piperidine] |  |  | − | − | − | − |  |  | 95 ± 11 | 100 ± 9 | 114 ± 8 | 123 ± 7 | 100 ± 9 | No | None |  |  |  | No | − |
